ChEMBL document CHEMBL3774345, “Synthesis of new diarylamides with pyrimidinyl pyridine scaffold and evaluation of their anti-proliferative effect on cancer cell lines” (Bioorg Med Chem Lett, 2016)

Columns and labels:
Format in all cases: functional
[1] = Cytotoxicity against human IGROV1 cells assessed as cell growth at 10 uM after 24 hrs by SRB assay; settings: IGROV-1, 24 h, read-out: Activity
Malme-3M = test: Cytotoxicity against human MALME-3M cells assessed as cell growth at 10 uM after 24 hrs by SRB assay; settings: read-out: Activity
SN12C = test: Cytotoxicity against human SN12C cells assessed as cell growth at 10 uM after 24 hrs by SRB assay; settings: read-out: Activity
MCF7 = test: Cytotoxicity against human MCF7 cells assessed as cell growth at 10 uM after 24 hrs by SRB assay; settings: MCF7, 24 h, read-out: Activity
MDA-MB-231 = test: Cytotoxicity against human MDA-MB-231 cells assessed as cell growth at 10 uM after 24 hrs by SRB assay; settings: MDA-MB-231, 24 h, read-out: Activity
EKVX = test: Cytotoxicity against human EKVX cells assessed as cell growth at 10 uM after 24 hrs by SRB assay; settings: read-out: Activity
K562 = test: Cytotoxicity against human K562 cells assessed as cell growth at 10 uM after 24 hrs by SRB assay; settings: K562, 24 h, read-out: Activity
ACHN = test: Cytotoxicity against human ACHN cells assessed as cell growth at 10 uM after 24 hrs by SRB assay; settings: read-out: Activity
[2] = Cytotoxicity against human OVCAR5 cells assessed as cell growth at 10 uM after 24 hrs by SRB assay; settings: OVCAR-5, 24 h, read-out: Activity
[3] = Cytotoxicity against human HOP92 cells assessed as cell growth at 10 uM after 24 hrs by SRB assay; settings: HOP-92, 24 h, read-out: Activity
[4] = Cytotoxicity against human COLO205 cells assessed as cell growth at 10 uM after 24 hrs by SRB assay; settings: COLO 205, 24 h, read-out: Activity
[5] = Cytotoxicity against human DU145 cells assessed as cell growth at 10 uM after 24 hrs by SRB assay; settings: DU-145, 24 h, read-out: Activity
NCI-H23 = test: Cytotoxicity against human NCI-H23 cells assessed as cell growth at 10 uM after 24 hrs by SRB assay; settings: NCI-H23, 24 h, read-out: Activity
CCRF-CEM = test: Cytotoxicity against human CCRF-CEM cells assessed as cell growth at 10 uM after 24 hrs by SRB assay; settings: read-out: Activity
NCI-H322M = test: Cytotoxicity against human NCI-H322M cells assessed as cell growth at 10 uM after 24 hrs by SRB assay; settings: read-out: Activity
[6] = Cytotoxicity against human HCT15 cells assessed as cell growth at 10 uM after 24 hrs by SRB assay; settings: HCT-15, 24 h, read-out: Activity
[7] = Cytotoxicity against human HL-60(TB) cells assessed as cell growth at 10 uM after 24 hrs by SRB assay; settings: HL-60, 24 h, read-out: Activity
[8] = Cytotoxicity against human NCI60 cells assessed as growth inhibition at 10 uM after 24 hrs by SRB assay; settings: NCI60, 24 h
[9] = Cytotoxicity against human SF268 cells assessed as cell growth at 10 uM after 24 hrs by SRB assay; settings: SF-268, 24 h, read-out: Activity
[10] = Cytotoxicity against human OVCAR4 cells assessed as cell growth at 10 uM after 24 hrs by SRB assay; settings: OVCAR-4, 24 h, read-out: Activity
[11] = Cytotoxicity against human SF295 cells assessed as cell growth at 10 uM after 24 hrs by SRB assay; settings: SF-295, 24 h, read-out: Activity
[12] = Cytotoxicity against human RXF393 cells assessed as cell growth at 10 uM after 24 hrs by SRB assay; settings: RXF 393, 24 h, read-out: Activity
[13] = Cytotoxicity against human Hs 578T cells assessed as cell growth at 10 uM after 24 hrs by SRB assay; settings: read-out: Activity
[14] = Cytotoxicity against human UACC62 cells assessed as cell growth at 10 uM after 24 hrs by SRB assay; settings: UACC-62, 24 h, read-out: Activity
[15] = Cytotoxicity against human HOP62 cells assessed as cell growth at 10 uM after 24 hrs by SRB assay; settings: HOP-62, 24 h, read-out: Activity
[16] = Cytotoxicity against human SF539 cells assessed as cell growth at 10 uM after 24 hrs by SRB assay; settings: SF-539, 24 h, read-out: Activity
MDA-MB-435 = test: Cytotoxicity against human MDA-MB-435 cells assessed as cell growth at 10 uM after 24 hrs by SRB assay; settings: MDA-MB-435, 24 h, read-out: Activity
[17] = Cytotoxicity against human SW620 cells assessed as cell growth at 10 uM after 24 hrs by SRB assay; settings: SW-620, 24 h, read-out: Activity
M14 = test: Cytotoxicity against human M14 cells assessed as cell growth at 10 uM after 24 hrs by SRB assay; settings: M14, 24 h, read-out: Activity
[18] = Cytotoxicity against human OVCAR3 cells assessed as cell growth at 10 uM after 24 hrs by SRB assay; settings: OVCAR-3, 24 h, read-out: Activity
NCI-H460 = test: Cytotoxicity against human NCI-H460 cells assessed as cell growth at 10 uM after 24 hrs by SRB assay; settings: NCI-H460, 24 h, read-out: Activity
[19] = Cytotoxicity against human PC3 cells assessed as cell growth at 10 uM after 24 hrs by SRB assay; settings: PC-3, 24 h, read-out: Activity
SK-MEL-2 = test: Cytotoxicity against human SK-MEL-2 cells assessed as cell growth at 10 uM after 24 hrs by SRB assay; settings: SK-MEL-2, 24 h, read-out: Activity
[20] = Cytotoxicity against human RPMI8226 cells assessed as cell growth at 10 uM after 24 hrs by SRB assay; settings: RPMI-8226, 24 h, read-out: Activity
NCI-H226 = test: Cytotoxicity against human NCI-H226 cells assessed as cell growth at 10 uM after 24 hrs by SRB assay; settings: NCI-H226, 24 h, read-out: Activity
[21] = Cytotoxicity against human UACC257 cells assessed as cell growth at 10 uM after 24 hrs by SRB assay; settings: UACC-257, 24 h, read-out: Activity
SK-MEL-28 = test: Cytotoxicity against human SK-MEL-28 cells assessed as cell growth at 10 uM after 24 hrs by SRB assay; settings: SK-MEL-28, 24 h, read-out: Activity
[22] = Cytotoxicity against human HCT116 cells assessed as cell growth at 10 uM after 24 hrs by SRB assay; settings: HCT-116, 24 h, read-out: Activity
[23] = Cytotoxicity against human SNB75 cells assessed as cell growth at 10 uM after 24 hrs by SRB assay; settings: SNB-75, 24 h, read-out: Activity
[24] = Cytotoxicity against human NCI-ADR-RES cells assessed as cell growth at 10 uM after 24 hrs by SRB assay; settings: read-out: Activity

SMILES | growth at 10 µM [1] [%] | growth at 10 µM (Malme-3M) [%] | growth at 10 µM (SN12C) [%] | growth at 10 µM (MCF7) [%] | growth at 10 µM (MDA-MB-231) [%] | growth at 10 µM (EKVX) [%] | growth at 10 µM (K562) [%] | growth at 10 µM (ACHN) [%] | growth at 10 µM [2] [%] | growth at 10 µM [3] [%] | growth at 10 µM [4] [%] | growth at 10 µM [5] [%] | growth at 10 µM (NCI-H23) [%] | growth at 10 µM (CCRF-CEM) [%] | growth at 10 µM (NCI-H322M) [%] | growth at 10 µM [6] [%] | growth at 10 µM [7] [%] | inhibition at 10 µM [8] [%] | growth at 10 µM [9] [%] | growth at 10 µM [10] [%] | further results
COc1cc(OC)cc(C(=O)Nc2cc(-c3cccnc3)nc(NCCCN3CCOCC3)n2)c1 | 97.4 | 110 | 86.4 | 88 | 79.6 | 103 | 74.1 | 103 | 100 | 67.7 | 94.3 | 104 | 91.7 | 90.8 | 90.9 | 90.6 | 86.5 | 8.88 | 94.1 | 117 | growth at 10 µM [11]: 101%; growth at 10 µM [12]: 93.9%; growth at 10 µM [13]: 69%; growth at 10 µM [14]: 97.6%; growth at 10 µM [15]: 87.8%; growth at 10 µM [16]: 91.1%; growth at 10 µM (MDA-MB-435): 102%; growth at 10 µM [17]: 99.9%; growth at 10 µM (M14): 104%; growth at 10 µM [18]: 105%; growth at 10 µM (NCI-H460): 95.3%; growth at 10 µM [19]: 85.4%; growth at 10 µM (SK-MEL-2): 84.1%; growth at 10 µM [20]: 79.1%; growth at 10 µM (NCI-H226): 85.7%; growth at 10 µM [21]: 88.6%; growth at 10 µM (SK-MEL-28): 101%; growth at 10 µM [22]: 89.2%; growth at 10 µM [23]: 109%; growth at 10 µM [24]: 95.4%
O=C(Nc1cc(-c2cccnc2)nc(NCCCN2CCOCC2)n1)c1ccc(F)cc1Cl | 95.9 | 108 | 92.1 | 87.4 | 93.2 | 102 | 83.3 | 102 | 100 | 91.2 | 99.5 | 112 | 90.5 | 88.3 | 88.2 | 94.5 | 83.6 | 3.57 | 94.9 | 115 | growth at 10 µM [11]: 100%; growth at 10 µM [12]: 102%; growth at 10 µM [13]: 105%; growth at 10 µM [14]: 105%; growth at 10 µM [15]: 95.5%; growth at 10 µM [16]: 101%; growth at 10 µM (MDA-MB-435): 106%; growth at 10 µM [17]: 90.3%; growth at 10 µM (M14): 102%; growth at 10 µM [18]: 106%; growth at 10 µM (NCI-H460): 94.8%; growth at 10 µM [19]: 91.2%; growth at 10 µM (SK-MEL-2): 91.3%; growth at 10 µM [20]: 90%; growth at 10 µM (NCI-H226): 108%; growth at 10 µM [21]: 95.4%; growth at 10 µM (SK-MEL-28): 108%; growth at 10 µM [22]: 106%; growth at 10 µM [23]: 112%; growth at 10 µM [24]: 94.5%
